Laboratory results reported in ChEMBL document CHEMBL4699440, “Comprehensive review on the anti-bacterial activity of 1,2,3-triazole hybrids” (Eur J Med Chem, 2019).
≈ marks a conversion by molar mass, not a printed value. Numbered stars: 1 amine (or outer) side, 2 acyl side, 3 side chain; on linkers, the order of the positions; unused ones are H or OH. Square brackets hold non-standard residues; d marks the D form. Peptide text beside a SMILES is read from it. * marks the point of attachment. X1 = CC(C)(C(=O)c1ccc(C(F)(F)F)cc1)C(=O)*; βPro(3R) = O=C([C@@H]1CCN([*:1])C1)[*:2]; Phe(ol) = N[C@H](CO)Cc1ccccc1; Aib = CC(C)(N)C(=O)O

Columns and labels:
Pseudomonas aeruginosa [1] = assay: Antibacterial activity against Pseudomonas aeruginosa 12 incubated for 20 hrs by agar dilution method; format: functional
Escherichia coli [2] = assay: Antibacterial activity against Escherichia coli NIHJ JC2 incubated for 20 hrs by agar dilution method; format: functional
Staphylococcus aureus [3] = assay: Antibacterial activity against Staphylococcus aureus by agar dilution method; format: functional
Bacillus cereus [4] = assay: Antibacterial activity against Bacillus cereus by agar dilution method; format: functional
Escherichia coli [5] = assay: Antibacterial activity against Escherichia coli ATCC 25922 incubated for 24 hrs by tube dilution method; format: functional
Klebsiella pneumoniae [6] = assay: Antibacterial activity against Klebsiella pneumoniae ATCC 15380 incubated for 24 hrs by tube dilution method; format: functional
Pseudomonas aeruginosa [7] = assay: Antibacterial activity against Pseudomonas aeruginosa ATCC 12454 incubated for 24 hrs by tube dilution method; format: functional
Staphylococcus aureus [8] = assay: Antibacterial activity against Staphylococcus aureus ATCC 25923 incubated for 24 hrs by tube dilution method; format: functional
Streptococcus pyogenes = assay: Antibacterial activity against Streptococcus pyogenes ATCC 35552 incubated for 24 hrs by tube dilution method; format: functional
Streptococcus pneumoniae = assay: Antibacterial activity against Streptococcus pneumoniae RCMB 010010 by broth dilution method; format: functional
Bacillus subtilis [9] = assay: Antibacterial activity against Bacillus subtilis RCMB 010067 by broth dilution method; format: functional
Staphylococcus aureus [10] = assay: Antibacterial activity against Staphylococcus aureus RCMB 010025 by broth dilution method; format: functional
Pseudomonas aeruginosa [11] = assay: Antibacterial activity against Pseudomonas aeruginosa RCMB 010043 by broth dilution method; format: functional
Escherichia coli [12] = assay: Antibacterial activity against Escherichia coli RCMB 010052 by broth dilution method; format: functional
Klebsiella pneumoniae [13] = assay: Antibacterial activity against Klebsiella pneumonia RCMB 010058 by broth dilution method; format: functional
Bacillus cereus [14] = assay: Antibacterial activity against Bacillus cereus ATCC 10876 incubated for 24 hrs by microdilution method; format: functional
Enterococcus faecalis = assay: Antibacterial activity against Enterococcus faecalis ATCC 29212 incubated for 24 hrs by microdilution method; format: functional
Staphylococcus aureus [15] = assay: Antibacterial activity against Staphylococcus aureus ATCC 25923 incubated for 24 hrs by microdilution method; format: functional
Proteus mirabilis [16] = assay: Antibacterial activity against Proteus mirabilis ATCC 35659 incubated for 24 hrs by microdilution method; format: functional
Pseudomonas aeruginosa [17] = assay: Antibacterial activity against Pseudomonas aeruginosa ATCC 27853 incubated for 24 hrs by microdilution method; format: functional
Bacillus subtilis [18] = assay: Antibacterial activity against Bacillus subtilis MTCC 441 incubated for 24 hrs by two-fold serial dilution method; format: functional
Pseudomonas aeruginosa [19] = assay: Antibacterial activity against Pseudomonas aeruginosa MTCC 424 incubated for 24 hrs by two-fold serial dilution method; format: functional
Escherichia coli [20] = assay: Antibacterial activity against Escherichia coli MTCC 1652 incubated for […] by two-fold serial dilution method; format: functional; conditions: time 24 hrs
Escherichia coli [21] = assay: Antibacterial activity against Escherichia coli MTCC […] by serial dilution method; format: functional
Bacillus subtilis [22] = assay: Antibacterial activity against Bacillus subtilis MTCC 441 by serial dilution method; format: functional
[23] = tested on: Staphylococcus epidermidis; assay: Antibacterial activity against Staphylococcus epidermidis MTCC 6880 by serial dilution method; format: functional
Pseudomonas aeruginosa [24] = assay: Antibacterial activity against Pseudomonas aeruginosa MTCC 424 by serial dilution method; format: functional
Bacillus cereus [25] = assay: Antibacterial activity against Bacillus cereus MTCC 430 incubated for 24 hrs by macrodilution tube method; format: functional
Bacillus subtilis [26] = assay: Antibacterial activity against Bacillus subtilis MTCC 441 incubated for 24 hrs by microdilution method; format: functional
Staphylococcus aureus [27] = assay: Antibacterial activity against Staphylococcus aureus MTCC 96 incubated for 24 hrs by microdilution method; format: functional
[28] = tested on: Staphylococcus epidermidis; assay: Antibacterial activity against Staphylococcus epidermidis incubated for 24 hrs by microdilution method; format: functional
Pseudomonas aeruginosa [29] = assay: Antibacterial activity against Pseudomonas aeruginosa MTCC 741 incubated for 24 hrs by microdilution method; format: functional
Klebsiella pneumoniae [30] = assay: Antibacterial activity against Klebsiella pneumoniae MTCC 618 incubated for 24 hrs by microdilution method; format: functional
Staphylococcus aureus [31] = assay: Antibacterial activity against Staphylococcus aureus 209P JC1 incubated for 20 hrs by agar dilution method; format: functional
[32] = tested on: Staphylococcus epidermidis; assay: Antibacterial activity against methicillin-resistant Staphylococcus epidermidis 13-3; format: functional
Staphylococcus aureus [33] = assay: Antibacterial activity against methicillin-sensitive Staphylococcus aureus ATCC 29213; format: functional
[34] = tested on: Staphylococcus epidermidis; assay: Antibacterial activity against methicillin-sensitive Staphylococcus epidermidis ATCC 12228; format: functional
Staphylococcus aureus [35] = assay: Antibacterial activity against methicillin-resistant Staphylococcus aureus ATCC 33591; format: functional
Enterococcus faecium [36] = assay: Antibacterial activity against Enterococcus faecium ATCC 700221; format: functional
Enterococcus faecium [37] = assay: Antibacterial activity against Enterococcus faecium 13-7; format: functional
Klebsiella pneumoniae [38] = assay: Antibacterial activity against Klebsiella pneumoniae ATCC 700603; format: functional
Klebsiella pneumoniae [39] = assay: Antibacterial activity against Klebsiella pneumoniae 7; format: functional
Pseudomonas aeruginosa [40] = assay: Antibacterial activity against Pseudomonas aeruginosa ATCC 27853; format: functional
[41] = tested on: Acinetobacter calcoaceticus; assay: Antibacterial activity against Acinetobacter calcoaceticus ATCC 19606; format: functional
Klebsiella aerogenes = assay: Antibacterial activity against Enterobacter aerogenes ATCC 13048; format: functional
Serratia marcescens = assay: Antibacterial activity against Serratia marcescens ATCC 21074; format: functional
Morganella morganii = assay: Antibacterial activity against Morganella morganii ATCC 25830; format: functional
Providencia rettgeri = assay: Antibacterial activity against Providencia rettgeri ATCC 31052; format: functional
Proteus vulgaris = assay: Antibacterial activity against Proteus vulgaris ATCC 29905; format: functional
Proteus mirabilis [42] = assay: Antibacterial activity against Proteus mirabilis 13-1; format: functional
[43] = tested on: Stenotrophomonas maltophilia; assay: Antibacterial activity against Stenotrophomonas maltophilia ATCC 13636; format: functional
Citrobacter freundii = assay: Antibacterial activity against Citrobacter freundii ATCC 43864; format: functional
[44] = Cytotoxicity against human KB cells; format: cell-based; conditions: human, KB cells; read-out: MIC
Staphylococcus aureus [45] = assay: Antibacterial activity against Staphylococcus aureus MTCC 7443 incubated for 24 hrs by two-fold serial dilution method; format: functional
Aspergillus brasiliensis = assay: Antifungal activity against Aspergillus brasiliensis MTCC 1344 incubated for 7 days by microdilution method; format: functional; conditions: MTCC 1344, 168 h, time 7 day
Candida albicans = assay: Antifungal activity against Candida albicans MTCC 227 incubated for 2 days by microdilution method; format: functional; conditions: MTCC 227, 48 h, time 2 day
Bacillus subtilis [46] = assay: Potency index, ratio of ciprofloxacin MIC to test compound MIC for antimicrobial activity against Bacillus subtilis MTCC 441 incubated for 24 hrs by two-fold serial dilution method; format: functional
Staphylococcus aureus [47] = assay: Potency index, ratio of ciprofloxacin MIC to test compound MIC for antimicrobial activity against Staphylococcus aureus MTCC 7443 incubated for 24 hrs by two-fold serial dilution method; format: functional
Pseudomonas aeruginosa [48] = assay: Potency index, ratio of ciprofloxacin MIC to test compound MIC for antimicrobial activity against Pseudomonas aeruginosa MTCC 424 incubated for 24 hrs by two-fold serial dilution method; format: functional
Escherichia coli [49] = assay: Potency index, ratio of ciprofloxacin MIC to test compound MIC for antimicrobial activity against Escherichia coli MTCC 1652 incubated for […] by two-fold serial dilution method; format: functional

O=C(O)c1cn(C2CC2)c2cc(N3CCNCC3)c(F)cc2c1=O [CIPROFLOXACIN]
MIC (Pseudomonas aeruginosa [1]): 0.0063 µg/mL (≈ 0.019 µM)
MIC (Escherichia coli [2]): 0.0063 µg/mL (≈ 0.019 µM)
MIC (Staphylococcus aureus [3]): 2 µg/mL (≈ 6.04 µM)
MIC (Bacillus cereus [4]): 2 µg/mL (≈ 6.04 µM)
MIC (Escherichia coli [5]): 5.5 µg/mL (≈ 16.6 µM)
MIC (Klebsiella pneumoniae [6]): 5.5 µg/mL (≈ 16.6 µM)
MIC (Pseudomonas aeruginosa [7]): 5.5 µg/mL (≈ 16.6 µM)
MIC (Staphylococcus aureus [8]): 5.5 µg/mL (≈ 16.6 µM)
MIC (Streptococcus pyogenes): 5.5 µg/mL (≈ 16.6 µM)
MIC (Streptococcus pneumoniae): ≥ 5 µg/mL
MIC (Bacillus subtilis [9]): ≥ 5 µg/mL
MIC (Staphylococcus aureus [10]): ≥ 5 µg/mL
MIC (Pseudomonas aeruginosa [11]): ≥ 5 µg/mL
MIC (Escherichia coli [12]): ≥ 5 µg/mL
MIC (Klebsiella pneumoniae [13]): ≥ 5 µg/mL
MIC (Bacillus cereus [14]): 1 µg/mL (≈ 3.02 µM)
MIC (Enterococcus faecalis): 1 µg/mL (≈ 3.02 µM)
MIC (Staphylococcus aureus [15]): 1 µg/mL (≈ 3.02 µM)
MIC (Proteus mirabilis [16]): 1 µg/mL (≈ 3.02 µM)
MIC (Pseudomonas aeruginosa [17]): 1 µg/mL (≈ 3.02 µM)
MIC (Bacillus subtilis [18]): 0.0377 µg/mL
MIC (Pseudomonas aeruginosa [19]): 0.0377 µg/mL
MIC (Escherichia coli [20]): 37.7 µM (≈ 12.5 µg/mL)
MIC (Escherichia coli [21]): 4.7 µM (≈ 1.56 µg/mL)
MIC (Bacillus subtilis [22]): 4.7 µM (≈ 1.56 µg/mL)
MIC [23]: 4.7 µM (≈ 1.56 µg/mL)
MIC (Pseudomonas aeruginosa [24]): 4.7 µM (≈ 1.56 µg/mL)
MIC (Bacillus cereus [25]): 6.25 µg/mL (≈ 18.9 µM)
MIC (Bacillus subtilis [26]): 0.39 µg/mL (≈ 1.18 µM)
MIC (Staphylococcus aureus [27]): 0.39 µg/mL (≈ 1.18 µM)
MIC [28]: 0.39 µg/mL (≈ 1.18 µM)
MIC (Pseudomonas aeruginosa [29]): 0.39 µg/mL (≈ 1.18 µM)
MIC (Klebsiella pneumoniae [30]): 0.39 µg/mL (≈ 1.18 µM)
MIC (Staphylococcus aureus [31]): 0.0063 µg/mL (≈ 0.019 µM)
MIC [32]: 0.03 µg/mL (≈ 0.0905 µM)
MIC (Staphylococcus aureus [33]): 0.03 µg/mL (≈ 0.0905 µM)
MIC [34]: 0.03 µg/mL (≈ 0.0905 µM)
MIC (Staphylococcus aureus [35]): 0.03 µg/mL (≈ 0.0905 µM)
MIC (Enterococcus faecium [36]): > 128 µg/mL
MIC (Enterococcus faecium [37]): > 128 µg/mL
MIC (Klebsiella pneumoniae [38]): 0.03 µg/mL (≈ 0.0905 µM)
MIC (Klebsiella pneumoniae [39]): ≤ 0.03 µg/mL
MIC (Pseudomonas aeruginosa [40]): 0.03 µg/mL (≈ 0.0905 µM)
MIC [41]: 0.03 µg/mL (≈ 0.0905 µM)
MIC (Klebsiella aerogenes): ≤ 0.03 µg/mL
MIC (Serratia marcescens): 0.03 µg/mL (≈ 0.0905 µM)
MIC (Morganella morganii): ≤ 0.03 µg/mL
MIC (Providencia rettgeri): ≤ 0.03 µg/mL
MIC (Proteus vulgaris): ≤ 0.03 µg/mL
MIC (Proteus mirabilis [42]): ≤ 0.03 µg/mL
MIC [43]: 0.03 µg/mL (≈ 0.0905 µM)
MIC (Citrobacter freundii): ≤ 0.03 µg/mL

CC(C)C[C@H](NC(=O)CNC(=O)C(C)(C)NC(=O)[C@@H](NC(=O)C(C)(C)NC(=O)[C@H](CCC(N)=O)NC(=O)[C@H](C)NC(=O)C(C)(C)NC(=O)[C@H](C)NC(=O)C(C)(C)NC(=O)[C@@H]1CCN(C(=O)C(C)(C)C(=O)c2ccc(C(F)(F)F)cc2)C1)C(C)C)C(=O)NC(C)(C)C(=O)N1CCC[C@H]1C(=O)N[C@H](C(=O)NC(C)(C)C(=O)NC(C)(C)C(=O)N[C@@H](CCC(N)=O)C(=O)N[C@@H](CCC(N)=O)C(=O)N[C@H](CO)Cc1ccccc1)C(C)C (X1-[βPro(3R)][Aib]A[Aib]AQ[Aib]V[Aib]GL[Aib]PV[Aib][Aib]QQ[Phe(ol)])
MCC [44]: 2.9 µg/mL

O=C(Cn1cc(COc2ccc(OCc3cn(CC(=O)Nc4ccc([N+](=O)[O-])cc4)nn3)cc2)nn1)Nc1ccc([N+](=O)[O-])cc1
MIC (Bacillus subtilis [18]): 0.0199 µM
MIC (Staphylococcus aureus [45]): 0.0199 µM (≈ 0.0125 µg/mL)
MIC (Pseudomonas aeruginosa [19]): 0.0199 µM
MIC (Aspergillus brasiliensis): 0.0199 µM (≈ 0.0125 µg/mL)
MIC (Candida albicans): 0.0199 µM (≈ 0.0125 µg/mL)
Ratio (Bacillus subtilis [46]): 2
Ratio (Staphylococcus aureus [47]): 2
Ratio (Pseudomonas aeruginosa [48]): 2
Ratio (Escherichia coli [49]): 2
